{"source": "patent US20200017495A1", "about": "“NOVEL HETEROCYCLIC COMPOUNDS AND THEIR USE IN PREVENTING OR TREATING BACTERIAL INFECTIONS” (priority 2017, published 2020)", "assay_in_all_cases": "MIC of compounds alone and combined with antibacterials, broth microdilution (CLSI)", "format_in_all_cases": "cell-based", "key": {"[1]": {"system": "Enterobacter aerogenes (EAE) isolates", "conditions": "Klebsiella aerogenes, alone, read-out: MIC", "outline": "(§1)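 Broth microdilution in cation-adjusted Mueller-Hinton broth, inoculum 5.10^5 CFU/mL, 16-20 h at 35° C in ambient air, on genotyped isolates. Compound MIC, alone or with an antibacterial, taken visually as lowest concentration preventing growth; antibacterial MIC determined at each compound concentration.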"}, "[2]": {"system": "Escherichia coli (ECO) isolates", "conditions": "Escherichia coli, read-out: MIC", "outline": "as §1"}, "[3]": {"system": "Citrobacter freundii (CFR) isolates", "conditions": "Citrobacter freundii", "outline": "as §1"}, "[4]": {"system": "Providencia rettgeri (PRE) isolates", "conditions": "Providencia rettgeri, read-out: MIC", "outline": "as §1"}, "[5]": {"system": "Citrobacter koseri (CKR) isolates", "conditions": "Citrobacter koseri, alone, read-out: MIC", "outline": "as §1"}, "[6]": {"system": "Serratia marcescens (SMA) isolates", "conditions": "Serratia marcescens, read-out: MIC", "outline": "as §1"}}, "note": "Where two headings read alike, the source gives them in different places.", "data": [{"compound": "O=C1N2CC(c3ncco3)=CC(C2)N1OC(F)(F)C(=O)[O-].[Li+]", "note": "(stereo not drawn) [AF2]", "values": [{"measurement": "MIC", "setting": "[1]; EAE 49469", "result": 8, "unit": "µg/mL"}, {"measurement": "MIC", "setting": "[1]; EAE 200261", "result": 16, "unit": "µg/mL"}, {"measurement": "MIC", "setting": "[1]; EAE UFR199", "result": 16, "unit": "µg/mL"}, {"measurement": "MIC", "setting": "[1]; EAE UFR201", "result": 4, "unit": "µg/mL"}, {"measurement": "MIC", "setting": "[1]; EAE UFR202", "result": 32, "unit": "µg/mL"}, {"measurement": "MIC", "setting": "[1]; EAE UFR207", "result": 4, "unit": "µg/mL"}, {"measurement": "MIC", "setting": "[1]; EAE UFR213", "result": 16, "unit": "µg/mL"}, {"measurement": "MIC", "setting": "[2]; ECO 4133, alone", "result": 8, "unit": "µg/mL"}, {"measurement": "MIC", "setting": "[2]; ECO 5302, alone", "result": 4, "unit": "µg/mL"}, {"measurement": "MIC", "setting": "[2]; ECO 131119, alone", "result": 4, "unit": "µg/mL"}, {"measurement": "MIC", "setting": "[2]; ECO 180070, alone", "result": 8, "unit": "µg/mL"}, {"measurement": "MIC", "setting": "[2]; ECO 190314, alone", "result": 8, "unit": "µg/mL"}, {"measurement": "MIC", "setting": "[2]; ECO 190317, alone", "result": 4, "unit": "µg/mL"}, {"measurement": "MIC", "setting": "[2]; ECO 190457, alone", "result": 4, "unit": "µg/mL"}, {"measurement": "MIC", "setting": "[2]; ECO 190549, alone", "result": 4, "unit": "µg/mL"}, {"measurement": "MIC", "setting": "[2]; ECO 200159, alone", "result": 4, "unit": "µg/mL"}, {"measurement": "MIC", "setting": "[2]; ECO 200259, alone", "result": 4, "unit": "µg/mL"}, {"measurement": "MIC", "setting": "[2]; ECO 200344, alone", "result": 8, "unit": "µg/mL"}, {"measurement": "MIC", "setting": "[2]; ECO 260096, alone", "result": 16, "unit": "µg/mL"}, {"measurement": "MIC", "setting": "[2]; ECO 260304, alone", "result": 4, "unit": "µg/mL"}, {"measurement": "MIC", "setting": "[2]; ECO 260508, alone", "result": 8, "unit": "µg/mL"}, {"measurement": "MIC", "setting": "[2]; ECO (strain number on grid row 356, not shown), alone", "result": 8, "unit": "µg/mL"}, {"measurement": "MIC", "setting": "[2]; ECO UFR17, alone", "result": 16, "unit": "µg/mL"}, {"measurement": "MIC", "setting": "[2]; ECO UFR18, alone", "result": 8, "unit": "µg/mL"}, {"measurement": "MIC", "setting": "[2]; ECO UFR19, alone", "result": 8, "unit": "µg/mL"}, {"measurement": "MIC", "setting": "[2]; ECO UFR32, alone", "result": 8, "unit": "µg/mL"}, {"measurement": "MIC", "setting": "[2]; ECO UFR39, alone", "result": 8, "unit": "µg/mL"}, {"measurement": "MIC", "setting": "[2]; ECO UFR41, alone", "result": 8, "unit": "µg/mL"}, {"measurement": "MIC", "setting": "[2]; ECO UFR45, alone", "result": 4, "unit": "µg/mL"}, {"measurement": "MIC", "setting": "[2]; ECO UFR52, alone", "result": 32, "unit": "µg/mL"}, {"measurement": "MIC", "setting": "[2]; ECO UFR61O, alone", "result": 8, "unit": "µg/mL"}, {"measurement": "MIC", "setting": "[2]; ECO UFR62, alone", "result": 8, "unit": "µg/mL"}, {"measurement": "MIC", "setting": "[2]; ECO UFR74, alone", "result": 8, "unit": "µg/mL"}, {"measurement": "MIC", "setting": "[2]; ECO UFR86, alone", "result": 16, "unit": "µg/mL"}, {"measurement": "MIC", "setting": "[2]; ECO UFR174, alone", "result": 2, "unit": "µg/mL"}, {"measurement": "MIC", "setting": "[2]; ECO UFR176, alone", "result": 8, "unit": "µg/mL"}, {"measurement": "MIC", "setting": "[2]; ECO UFR184, alone", "result": 4, "unit": "µg/mL"}, {"measurement": "MIC", "setting": "[2]; ECO UFR208, alone", "result": 16, "unit": "µg/mL"}, {"measurement": "MIC", "setting": "[2]; ECO UFR209, alone", "result": 8, "unit": "µg/mL"}, {"measurement": "MIC", "setting": "[2]; ECO UFR210, alone", "result": 4, "unit": "µg/mL"}, {"measurement": "MIC", "setting": "[2]; ECO UFR211, alone", "result": 4, "unit": "µg/mL"}, {"measurement": "MIC", "setting": "[2]; ECO UFR212, alone", "result": 4, "unit": "µg/mL"}, {"measurement": "MIC", "setting": "[2]; ECO URF20, alone", "result": 4, "unit": "µg/mL"}, {"measurement": "MIC", "setting": "[2]; strain ECO UFR177, compound alone", "result": 4, "unit": "µg/mL"}, {"measurement": "MIC", "setting": "[2]; strain ECO UFR178, compound alone", "result": 8, "unit": "µg/mL"}, {"measurement": "MIC", "setting": "[2]; strain ECO UFR179, compound alone", "result": 4, "unit": "µg/mL"}, {"measurement": "MIC", "setting": "[2]; strain ECO UFR180, compound alone", "result": 4, "unit": "µg/mL"}, {"measurement": "MIC", "setting": "[2]; strain ECO UFR181, compound alone", "result": 16, "unit": "µg/mL"}, {"measurement": "MIC", "setting": "[2]; strain ECO UFR182, compound alone", "result": 8, "unit": "µg/mL"}, {"measurement": "MIC", "setting": "[2]; strain ECO UFR183, compound alone", "result": 32, "unit": "µg/mL"}, {"measurement": "MIC", "setting": "[2]; strain ECO UFR186, compound alone", "result": 8, "unit": "µg/mL"}, {"measurement": "MIC", "setting": "[2]; strain ECO UFR187, compound alone", "result": 16, "unit": "µg/mL"}, {"measurement": "MIC", "setting": "[2]; strain ECO UFR189, compound alone", "result": 4, "unit": "µg/mL"}, {"measurement": "MIC", "setting": "[2]; strain ECO UFR190, compound alone", "result": 8, "unit": "µg/mL"}, {"measurement": "MIC", "setting": "[2]; strain ECO UFR191, compound alone", "result": 8, "unit": "µg/mL"}, {"measurement": "MIC", "setting": "[2]; strain ECO UFR204, compound alone", "result": 8, "unit": "µg/mL"}, {"measurement": "MIC", "setting": "[2]; strain ECO UFR205, compound alone", "result": 8, "unit": "µg/mL"}, {"measurement": "MIC", "setting": "[2]; strain ECO UFR206, compound alone", "result": 16, "unit": "µg/mL"}, {"measurement": "MIC", "setting": "[2]; strain ECO UFR252GO, compound alone", "result": 8, "unit": "µg/mL"}, {"measurement": "MIC", "setting": "[2]; strain ECO UFR255, compound alone", "result": 4, "unit": "µg/mL"}, {"measurement": "MIC", "setting": "[3]; CFR UFR10, alone", "result": 4, "unit": "µg/mL"}, {"measurement": "MIC", "setting": "[3]; CFR UFR11, alone", "result": "> 32", "unit": "µg/mL"}, {"measurement": "MIC", "setting": "[3]; CFR UFR37, alone", "result": 4, "unit": "µg/mL"}, {"measurement": "MIC", "setting": "[3]; CFR UFR83, alone", "result": "> 32", "unit": "µg/mL"}, {"measurement": "MIC", "setting": "[3]; CFR UFR146, alone", "result": 32, "unit": "µg/mL"}, {"measurement": "MIC", "setting": "[3]; CFR UFR248, alone", "result": 8, "unit": "µg/mL"}, {"measurement": "MIC", "setting": "[3]; strain CFR UFR147, compound alone", "result": 8, "unit": "µg/mL"}, {"measurement": "MIC", "setting": "[3]; strain CFR UFR148, compound alone", "result": 8, "unit": "µg/mL"}, {"measurement": "MIC", "setting": "[3]; strain CFR UFR251, compound alone, read-out: MIC", "result": 16, "unit": "µg/mL"}, {"measurement": "MIC", "setting": "[3]; strain CFR UFR254, compound alone", "result": 4, "unit": "µg/mL"}, {"measurement": "MIC", "setting": "[4]; PRE UFR99, alone", "result": 16, "unit": "µg/mL"}, {"measurement": "MIC", "setting": "[4]; strain PRE UFR96, compound alone", "result": 8, "unit": "µg/mL"}, {"measurement": "MIC", "setting": "[4]; strain PRE UFR97, compound alone", "result": "> 32", "unit": "µg/mL"}, {"measurement": "MIC", "setting": "[4]; strain PRE UFR236, compound alone", "result": 32, "unit": "µg/mL"}, {"measurement": "MIC", "setting": "[5]; CKO ROU", "result": 16, "unit": "µg/mL"}, {"measurement": "MIC", "setting": "[5]; CKO UFR149", "result": 16, "unit": "µg/mL"}, {"measurement": "MIC", "setting": "[5]; CKO UFR150", "result": "> 32", "unit": "µg/mL"}, {"measurement": "MIC", "setting": "[6]; SMA UFR30, alone", "result": 16, "unit": "µg/mL"}, {"measurement": "MIC", "setting": "[6]; SMA UFR134, alone", "result": 16, "unit": "µg/mL"}, {"measurement": "MIC", "setting": "[6]; SMA UFR135, alone", "result": "> 32", "unit": "µg/mL"}, {"measurement": "MIC", "setting": "[6]; SMA UFR136, alone", "result": "> 32", "unit": "µg/mL"}, {"measurement": "MIC", "setting": "[6]; SMA UFR137, alone", "result": 16, "unit": "µg/mL"}, {"measurement": "MIC", "setting": "[6]; SMA UFR138, alone", "result": 16, "unit": "µg/mL"}, {"measurement": "MIC", "setting": "[6]; SMA UFR139, alone", "result": "> 32", "unit": "µg/mL"}, {"measurement": "MIC", "setting": "[6]; SMA UFR141, alone", "result": "> 32", "unit": "µg/mL"}, {"measurement": "MIC", "setting": "[6]; SMA UFR142, alone", "result": 32, "unit": "µg/mL"}, {"measurement": "MIC", "setting": "[6]; SMA UFR143, alone", "result": 32, "unit": "µg/mL"}, {"measurement": "MIC", "setting": "[6]; SMA UFR239, alone", "result": 32, "unit": "µg/mL"}, {"measurement": "MIC", "setting": "[6]; strain SMA UFR140, compound alone", "result": "> 32", "unit": "µg/mL"}, {"measurement": "MIC", "setting": "[6]; strain SMA UFR238, compound alone", "result": 16, "unit": "µg/mL"}]}]}
